Reference: patent publication US20250186410A1, “DUAL INHIBITORS OF TRYPTOPHAN DIOXYGENASES (IDO1 AND TDO) AND THEIR USE IN THERAPY” (ANTIDO THERAPEUTICS INTERNATIONAL SÀRL, priority 2022, published 2025)

Tests used:
[1] = MTT cell viability in the cellular IDO1/TDO experiments; format: cell-based; conditions: mouse, read-out: Cytotoxicity IC50
Procedure: The viability of the cells in each well in the same experiment was determined using the 3-(4,5-dimethylthiazolyl-2-yl)-2,5-diphenyltetrazolium bromide (MTT) colourimetric assay. After the removal of the supernatant for determination of IDO1 inhibition, the cells were incubated with MTT (500 μg/mL) until crystal formation was observed. Plates were centrifuged for 15 min at 2500 g, and then all the supernatant in then wells was discarded. DMSO (100 μL/well) was added to dissolve the crystals and then the absorbance in each well was measured at 570 nm. Cell viability in each well was expressed as a percentage of untreated controls. Triplicate cultures were used for all experiments unless stated otherwise.
The viability of the cells in each well in the same experiment was determined using the 3-(4,5-dimethylthiazolyl-2-yl)-2,5-diphenyltetrazolium bromide (MTT) colourimetric assay.

[2] = target: Recombinant human IDO1 (rhIDO1) (Homo sapiens (Human), UniProt P14902); assay: Enzymatic assay for IDO1 activity; format: biochemical; conditions: read-out: Isolated IDO1 Enayme Assay IC50
Sequence of Recombinant human IDO1 (rhIDO1) (P14902 whole entry): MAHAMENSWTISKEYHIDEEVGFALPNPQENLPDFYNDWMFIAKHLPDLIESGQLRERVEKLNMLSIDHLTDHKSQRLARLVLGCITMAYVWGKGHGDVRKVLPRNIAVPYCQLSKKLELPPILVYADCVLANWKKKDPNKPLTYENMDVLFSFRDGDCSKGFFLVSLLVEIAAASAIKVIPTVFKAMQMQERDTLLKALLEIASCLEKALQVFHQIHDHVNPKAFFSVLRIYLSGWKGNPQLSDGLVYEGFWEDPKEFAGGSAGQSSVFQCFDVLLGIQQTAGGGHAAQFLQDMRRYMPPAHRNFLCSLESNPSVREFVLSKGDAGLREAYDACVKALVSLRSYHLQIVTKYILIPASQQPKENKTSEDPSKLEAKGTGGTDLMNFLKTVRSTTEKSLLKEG
Procedure: Recombinant human IDO1 (rhIDO1) was expressed and purified from cultures of EC538 strain of E. coli transformed with pREP4 and pQE9-IDO plasmid. Reaction mixes were set up in 384-well microplates containing 50 mM phosphate buffer, 10 mM ascorbic, 10 μM methylene blue, 100 μg/mL catalase, 80 μM TRP, 0.01% Tween 20 (v/v) mixed with rhIDO1 (15 μL) at a final concentration of 9 nM in a total volume of 30 μL assay medium. The plates were incubated at 37° C. for 30 min, and the enzymatic reaction was terminated by adding piperidine (200 mM) and heated at 65° C. for 20 min. Fluorescence intensity was read at λex 400 nm and λem 500 nm. Test compounds were dissolved in 100% DMSO and pre-diluted in assay medium prior to adding rhIDO1. IDO1 inhibition (%) was calculated as
All experiments were carried out in triplicates, and statistical Analyses were conducted in Prism v5 (Graphpad Software, Inc., La Jolla, CA, USA).

[3] = target: human TDO (GL261 cells transfected to over-express full length human TDO) (Homo sapiens (Human), UniProt P48775); assay: Cell-based assay for TDO inhibition; conditions: 24 h; read-out: Cellular TDO IC50
Sequence of human TDO (GL261 cells transfected to over-express full length human TDO) (P48775 whole entry): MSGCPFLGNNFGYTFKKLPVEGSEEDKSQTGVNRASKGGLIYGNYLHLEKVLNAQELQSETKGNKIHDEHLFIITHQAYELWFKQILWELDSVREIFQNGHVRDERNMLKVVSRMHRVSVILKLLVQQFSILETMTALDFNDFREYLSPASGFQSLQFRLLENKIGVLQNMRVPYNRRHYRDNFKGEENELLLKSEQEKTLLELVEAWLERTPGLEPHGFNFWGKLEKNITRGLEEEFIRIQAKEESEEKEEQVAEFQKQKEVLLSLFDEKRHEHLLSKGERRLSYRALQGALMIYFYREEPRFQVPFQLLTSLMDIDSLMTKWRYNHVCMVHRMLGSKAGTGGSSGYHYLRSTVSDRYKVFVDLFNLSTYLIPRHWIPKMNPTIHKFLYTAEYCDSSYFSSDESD
Procedure: Culture supernatant from each well was then transferred into a fresh, flat-bottomed 96-well plate, and kynurenine content was determined as described above for the IDO1 assay, and the concentration that inhibited 50% cellular enzyme activity was calculated.

LLC-CR cells = conditions: cited from earlier work
[4] = target: human IDO1 (LLTC-hIDO1 cells) (Homo sapiens (Human), UniProt P14902); assay: Cell-based assay for IDO1 inhibition; conditions: 24 h; read-out: Cellular IDO1 IC50
Sequence of human IDO1 (LLTC-hIDO1 cells) (P14902 whole entry): as the sequence (P14902 whole entry) above
Procedure: Culture supernatant from each well was then transferred into a fresh, flat-bottomed 96-well plate, mixed with trichloroacetic acid (10% final concentration) and incubated for 20 min at 60° C. Plates were then centrifuged (10 min at 2500 g) and the supernatants were then transferred and mixed 1:1 with 4-(dimethylamino)benzaldehyde (20 mg/mL in acetic acid) in a new plate. The absorbance of each well was read at 480 nm, and the concentration that inhibited 50% cellular enzyme activity was calculated.

Compound	IC50 at 24 h [1]	IC50 [2]	IC50 [3]	GI50 concentration in resistant clones (LLC-CR cells; LLC-CR cells)	fold resistance of LLC-CR (LLC-CR cells; LLC-CR versus parental LLC)	IC50 [4]
Cc1cnc2onc(N)c2c1 [Compound 44, 5-Methylisoxazolo[5,4-b]pyridin-3-amine]	> 100 µM	> 100 µM	< 1 µM	–	–	–
Nc1noc2ncncc12 [Compound 12, Isoxazolo[5,4-d]pyrimidin-3-amine]	> 100 µM	> 100 µM	1 to 10 µM	–	–	–
Nc1noc2nc(Cl)c(Cl)cc12 [Compound 67, 5,6-Dichloroisoxazolo[5,4-b]pyridin-3-amine]	> 100 µM	–	< 1 µM	–	–	–
Cc1cc(Cl)nc2onc(N)c12 [Compound 42, 6-Chloro-4-methylisoxazolo[5,4-b]pyridin-3-amine]	> 100 µM	< 1 µM	1 to 10 µM	–	–	–
Nc1noc2nc(C(F)(F)F)ccc12 [Compound 47, 6-(Trifluoromethyl)isoxazolo[5,4-b]pyridin-3-amine]	> 100 µM	< 1 µM	1 to 10 µM	–	–	–
Cc1nc2onc(N)c2c(C)c1Cl [Compound 3, 5-Chloro-4,6-dimethylisoxazolo[5,4-b]pyridin-3-amine]	10 to 100 µM	–	10 to 100 µM	–	–	–
N.N.O=C([O-])C1(C(=O)[O-])CCC1.[Pt+2] [carboplatin]	–	–	–	1.3 µg/mL	3-5 fold	–
Nc1noc2ncc(I)cc12 [Compound 16, 5-Iodoisoxazolo[5,4-b]pyridin-3-amine]	> 100 µM	–	< 1 µM	–	–	–
Nc1noc2ncc([N+](=O)[O-])cc12 [Compound 49, 5-Nitroisoxazolo[5,4-b]pyridin-3-amine]	> 100 µM	–	< 1 µM	–	–	–
Nc1noc2nc(Cl)ccc12 [Compound 11, 6-Chloroisoxazolo[5,4-b]pyridin-3-amine]	> 100 µM	–	–	–	–	–
Nc1noc2nc3ccccc3cc12 [Compound 9, Isoxazolo[5,4-b]quinolin-3-amine]	10 to 100 µM	–	1 to 10 µM	–	–	–
Nc1noc2nc(Oc3ccccc3Cl)ccc12 [Compound 84, 6-(2-Chlorophenoxy)isoxazolo[5,4-b]pyridin-3-amine]	> 100 µM	–	1 to 10 µM	–	–	–
Cc1cc(C)c2c(N)noc2n1 [Compound 4, 4,6-Dimethylisoxazolo[5,4-b]pyridin-3-amine]	> 100 µM	–	10 to 100 µM	–	–	–
Nc1noc2ncc(Cl)cc12 [Compound 8, 5-Chloroisoxazolo[5,4-b]pyridin-3-amine]	> 100 µM	–	< 1 µM	–	–	–
Cc1nc2onc(N)c2c(C)c1Br [Compound 1, 5-Bromo-4,6-dimethylisoxazolo[5,4-b]pyridin-3-amine]	> 100 µM	–	10 to 100 µM	–	–	–
Nc1noc2nc3c(cc12)CCCC3 [Compound 10, 5,6,7,8-Tetrahydroisoxazolo[5,4-b]quinolin-3-amine]	> 100 µM	> 100 µM	10 to 100 µM	–	–	–
Cc1cc2c(N)noc2nc1C [Compound 45, 5,6-Dimethylisoxazolo[5,4-b]pyridin-3-amine]	> 100 µM	> 100 µM	1 to 10 µM	–	–	–
COc1cccc(Nc2ccc3c(N)noc3n2)c1 [Compound 95, N^6-(3-Methoxyphenyl)isoxazolo[5,4-b]pyridine-3,6-diamine]	> 100 µM	> 100 µM	10 to 100 µM	–	–	10 to 100 µM
Nc1noc2ncc(Br)cc12 [Compound 6, 5-Bromoisoxazolo[5,4-b]pyridin-3-amine]	> 100 µM	–	< 1 µM	–	–	–
Nc1noc2ncc(F)cc12 [Compound 14, 5-Fluoroisoxazolo[5,4-b]pyridin-3-amine]	> 100 µM	> 100 µM	1 to 10 µM	–	–	1 to 10 µM
Nc1noc2ncc(-c3ccccc3)cc12 [Compound 24, 5-Phenylisoxazolo[5,4-b]pyridin-3-amine]	> 100 µM	> 100 µM	1 to 10 µM	–	–	10 to 100 µM
Nc1noc2nc(-c3cccs3)ccc12 [Compound 74, 6-(2-Thienyl)isoxazolo[5,4-b]pyridin-3-amine]	> 100 µM	> 100 µM	10 to 100 µM	–	–	–
Nc1noc2nc(Oc3ccc(OC(F)(F)F)cc3)ccc12 [Compound 89, 6-(4-(Trifluoromethoxy)phenoxy)isoxazolo[5,4-b]pyridin-3-amine]	> 100 µM	–	–	–	–	–
Cc1nc2onc(NC(=O)Nc3cccc(C(F)(F)F)c3)c2c(C)c1Cl [Compound 15B, 1-(5-Chloro-4,6-dimethylisoxazolo[5,4-b]pyridin-3-yl)-3-(3-(trifluoromethyl)phenyl)urea]	> 100 µM	> 100 µM	–	–	–	1 to 10 µM
Nc1noc2nc(-c3ccccc3)ccc12 [Compound 15, 6-Phenylisoxazolo[5,4-b]pyridin-3-amine]	> 100 µM	> 100 µM	10 to 100 µM	–	–	–
Cc1nc2onc(N)c2c(C)c1C [Compound 5, 4,5,6-Trimethylisoxazolo[5,4-b]pyridin-3-amine]	> 100 µM	–	10 to 100 µM	–	–	1 to 10 µM
COc1ccc2c(N)noc2n1 [Compound 41, 6-Methoxyisoxazolo[5,4-b]pyridin-3-amine]	> 100 µM	> 100 µM	10 to 100 µM	–	–	1 to 10 µM
